Experimental data: patent US20100222294A1, “Formulations of ATP and Analogs of ATP” (priority 2009, published 2010)
Like-named read-outs stand apart in the source and are kept apart here.

Format: physicochemical
Experimental: An aqueous solution containing the following components was made:
10 mg/ml of adenosine 5′-triphosphate disodium salt (anhydrous) (18.15 mM)
1 mg/ml of glycine (13.32 mM)
Sodium hydroxide (sufficient to adjust pH to 9.2-9.3)
Water sufficient to result in the above concentrations of adenosine 5′-triphosphate disodium salt (anhydrous), glycine, and 36 mg/ml of Na2HPO4.7H2O.
Below (in Table 2) are shown the relative amounts of ADP in the solution aliquots at the various time points. The data shown are concentrations of ADP as a percentage of the concentrations of ATP in the solution aliquots. The pH of the 72 month time point sample was 8.8.

With `Nc1ncnc2c1ncn2[C@@H]1O[C@H](COP(=O)([O-])OP(=O)([O-])OP(=O)(O)O)[C@@H](O)[C@H]1O.[Na+].[Na+]` [ATP, adenosine 5′-triphosphate disodium salt (anhydrous)] the “Relative amount of ADP ([ADP]/[ATP] × 100)” value (“Relative amount of ADP” for short) (0 months storage (immediately after making), 10 mg/ml ATP disodium, 1 mg/ml glycine, 36 mg/ml Na2HPO4.7H2O, pH 9.2-9.3) was 0.35%, the “Relative amount of ADP” value (1 month storage at about 4° C. to about 8° C., same solution) was 0.42% and the “Relative amount of ADP” value (3 months storage at about 4° C. to about 8° C., same solution) was 0.48%. The “Relative amount of ADP” value (6 months storage at about 4° C. to about 8° C., same solution) was 0.57%, the “Relative amount of ADP” value (12 months storage at about 4° C. to about 8° C., same solution) was 0.72% and the “Relative amount of ADP” value (24 months storage at about 4° C. to about 8° C., same solution) was 1.15%. The “Relative amount of ADP” value (36 months storage at about 4° C. to about 8° C., same solution) was 1.4%, the “pH of the solution after storage” value (72 month time point sample, initial pH 9.2-9.3) was 8.8 and the “Relative amount of ADP” value (72 months (6 years) storage at about 4° C. to about 8° C., same solution) was 2.9%. The “Stability of alkaline solution of ATP (duration)” value (alkaline solution) was “stable for at least six years” and the “Presence of other ATP degradation (hydrolysis) products (AMP and adenosine)” value (all time points 0 to 72 months, about 4° C. to 8° C., HPLC) was “significant levels of neither were detectable at any of the time points”.
